We go through 33 compounds from ChEMBL document CHEMBL4393691, “Design, synthesis and antitumor evaluation of novel celastrol derivatives” (Eur J Med Chem, 2019).

As a reminder, the inhibition is the percentage by which the read-out fell short of the control. The IC50 is the concentration that gives 50% inhibition.

Assay [1] deals with MCF7. As to the kind of experiment: Antiproliferative activity against human MCF7 cells assessed as reduction in cell viability at 1 uM incubated for 48 hrs by MTT assay relative to control. Type of assay: functional. Conditions: MCF7, 48 h.
The subject of assay [2] is A549. The assay is described as follows: cells. Conditions: Homo sapiens, A549, 48 h.
In assay [3] the test system is MCF7. The assay is described as follows: cells. Conditions: Homo sapiens, MCF7, 48 h.
Assay [4] relates to HepG2. The assay is described as follows: Cytotoxicity against human HepG2 cells assessed as reduction in cell viability incubated for 48 hrs by MTT assay. The format is functional, cell-based. The following applies: HepG2, 48 h.
Assay [5] concerns A549. The assay is described as follows: Induction of apoptosis in human A549 cells assessed as late apoptotic cells at 2 uM incubated for 24 hrs by AnnexinV-FITC/propidium iodide staining-based flow cytometric analysis (reference value: 4.2%). Type of assay: functional. A general note: In flow cytometry, cells or beads pass a laser one at a time.
Assay [6] concerns A549. The assay is described as follows: Induction of apoptosis in human A549 cells assessed as necrotic cells at 2 uM incubated for 24 hrs by AnnexinV-FITC/propidium iodide staining-based flow cytometric analysis (reference value: 3.6%). The format is functional.
Assay [7] deals with A549. As to the kind of experiment: Induction of apoptosis in human A549 cells assessed as viable cells at 2 uM incubated for 24 hrs by AnnexinV-FITC/propidium iodide staining-based flow cytometric analysis (reference value: 88.1%). The following applies: A549, 24 h, read-out: Activity. Type of assay: functional.
In assay [8] the test system is A549. The assay is described as follows: Inhibition of Hsp90-Cdc37 interaction in human A549 cells assessed as decrease in Cdc37 protein level at 5 uM incubated for 6 hrs by immunoprecipitation assay. Type of assay: cell-based.
The subject of assay [9] is A549. The assay is described as follows: Induction of apoptosis in human A549 cells assessed as early apoptotic cells at 2 uM incubated for 24 hrs by AnnexinV-FITC/propidium iodide staining-based flow cytometric analysis (reference value: 4.1%). The format is functional.

Each structure is given as a SMILES string. Activity calls are given as the source filed them. No cut-off for these calls is given here.

Regarding `COC(=O)/C=C/c1ccc(OC/C=C/COC(=O)[C@]2(C)CC[C@]3(C)CC[C@]4(C)C5=CC=C6C(=CC(=O)C(O)=C6C)[C@]5(C)CC[C@@]4(C)[C@@H]3C2)c(OC)c1`, in assay [1], the inhibition at 1 µM is 32.5%.
With `COC(=O)/C(C#N)=C/c1ccc(OCCCOC(=O)[C@]2(C)CC[C@]3(C)CC[C@]4(C)C5=CC=C6C(=CC(=O)C(O)=C6C)[C@]5(C)CC[C@@]4(C)[C@@H]3C2)cc1F`, the inhibition at 1 µM in assay [1] amounted to 8.36%.
For `COC(=O)/C=C/c1ccc(OCCCOC(=O)[C@]2(C)CC[C@]3(C)CC[C@]4(C)C5=CC=C6C(=CC(=O)C(O)=C6C)[C@]5(C)CC[C@@]4(C)[C@@H]3C2)c(OC)c1`, the results for the IC50 in assay [2], in assay [3] and in assay [4] were 0.56 µM, 0.45 µM and 0.53 µM, respectively. Moreover, the inhibition at 1 µM in assay [1] worked out at 78.5%.
In the case of `COC(=O)/C=C\c1cccc(OCCCOC(=O)[C@]2(C)CC[C@]3(C)CC[C@]4(C)C5=CC=C6C(=CC(=O)C(O)=C6C)[C@]5(C)CC[C@@]4(C)[C@@H]3C2)c1`, the inhibition at 1 µM in assay [1] is 33%.
Turning to `COC(=O)/C=C/c1cc(OC)c(OCCCCOC(=O)[C@]2(C)CC[C@]3(C)CC[C@]4(C)C5=CC=C6C(=CC(=O)C(O)=C6C)[C@]5(C)CC[C@@]4(C)[C@@H]3C2)c(OC)c1`, the inhibition at 1 µM in [1] came to 7.52%.
In the case of `COC(=O)/C=C\c1ccc(OC)c(OC/C=C/COC(=O)[C@]2(C)CC[C@]3(C)CC[C@]4(C)C5=CC=C6C(=CC(=O)C(O)=C6C)[C@]5(C)CC[C@@]4(C)[C@@H]3C2)c1`, in [1], the inhibition at 1 µM came to 49.2%.
For the compound `COC(=O)/C=C/c1ccc(OC/C=C/COC(=O)[C@]2(C)CC[C@]3(C)CC[C@]4(C)C5=CC=C6C(=CC(=O)C(O)=C6C)[C@]5(C)CC[C@@]4(C)[C@@H]3C2)cc1`, the inhibition at 1 µM in assay [1] was 5.29%.
In the case of `COC(=O)/C(C#N)=C\c1ccc(OC)c(OCCOC(=O)[C@]2(C)CC[C@]3(C)CC[C@]4(C)C5=CC=C6C(=CC(=O)C(O)=C6C)[C@]5(C)CC[C@@]4(C)[C@@H]3C2)c1`, the IC50 in assay [2] amounted to 0.46 µM; in assay [3], 0.3 µM; in assay [4], 0.37 µM. In addition, in assay [1], the inhibition at 1 µM stood at 79.7%.
Consider `COC(=O)/C(C#N)=C/c1ccc(OCCCOC(=O)[C@]2(C)CC[C@]3(C)CC[C@]4(C)C5=CC=C6C(=CC(=O)C(O)=C6C)[C@]5(C)CC[C@@]4(C)[C@@H]3C2)cc1`, for which the inhibition at 1 µM in assay [1] is 22.1%.
In the case of `COC(=O)/C(C#N)=C\c1ccc(OC)c(OC/C=C/COC(=O)[C@]2(C)CC[C@]3(C)CC[C@]4(C)C5=CC=C6C(=CC(=O)C(O)=C6C)[C@]5(C)CC[C@@]4(C)[C@@H]3C2)c1`, the inhibition at 1 µM in [1] was found to be 45.6%.
As for `COC(=O)/C=C/c1ccc(OCCCOC(=O)[C@]2(C)CC[C@]3(C)CC[C@]4(C)C5=CC=C6C(=CC(=O)C(O)=C6C)[C@]5(C)CC[C@@]4(C)[C@@H]3C2)cc1`, in [1], the inhibition at 1 µM stood at 50.5%.
For the compound `COC(=O)/C=C/c1ccc(OCCCCOC(=O)[C@]2(C)CC[C@]3(C)CC[C@]4(C)C5=CC=C6C(=CC(=O)C(O)=C6C)[C@]5(C)CC[C@@]4(C)[C@@H]3C2)c(OC)c1`, the inhibition at 1 µM in assay [1] turned out to be 15.9%.
Same read-out and setting: the value for `COC(=O)/C=C/c1cc(OC)c(OC/C=C/COC(=O)[C@]2(C)CC[C@]3(C)CC[C@]4(C)C5=CC=C6C(=CC(=O)C(O)=C6C)[C@]5(C)CC[C@@]4(C)[C@@H]3C2)c(OC)c1` was 18%; that for `COC(=O)/C(C#N)=C/c1ccc(OCCOC(=O)[C@]2(C)CC[C@]3(C)CC[C@]4(C)C5=CC=C6C(=CC(=O)C(O)=C6C)[C@]5(C)CC[C@@]4(C)[C@@H]3C2)c(OC)c1` was 59.9%.
Still for that read-out and setting: the value for `COC(=O)/C(C#N)=C\c1ccc(OC)c(OCCCCOC(=O)[C@]2(C)CC[C@]3(C)CC[C@]4(C)C5=CC=C6C(=CC(=O)C(O)=C6C)[C@]5(C)CC[C@@]4(C)[C@@H]3C2)c1` was 27.4%; that for `COC(=O)/C(C#N)=C/c1ccc(OCCCOC(=O)[C@]2(C)CC[C@]3(C)CC[C@]4(C)C5=CC=C6C(=CC(=O)C(O)=C6C)[C@]5(C)CC[C@@]4(C)[C@@H]3C2)c(C)c1` was 21.9%.
Regarding `COC(=O)/C(C#N)=C/c1ccc(OCCCOC(=O)[C@]2(C)CC[C@]3(C)CC[C@]4(C)C5=CC=C6C(=CC(=O)C(O)=C6C)[C@]5(C)CC[C@@]4(C)[C@@H]3C2)c(F)c1`, the inhibition at 1 µM in assay [1] amounted to 18.8%.
As to `COC(=O)/C=C/c1ccc(OCCOC(=O)[C@]2(C)CC[C@]3(C)CC[C@]4(C)C5=CC=C6C(=CC(=O)C(O)=C6C)[C@]5(C)CC[C@@]4(C)[C@@H]3C2)c(OC)c1`, in [1], the inhibition at 1 µM is 27.7%.
Take `COC(=O)/C(C#N)=C\c1ccc(OC)c(OCCCOC(=O)[C@]2(C)CC[C@]3(C)CC[C@]4(C)C5=CC=C6C(=CC(=O)C(O)=C6C)[C@]5(C)CC[C@@]4(C)[C@@H]3C2)c1`: the IC50 in assay [2] worked out at 0.78 µM; in [3], 0.64 µM; in assay [4] it was 0.71 µM. For the same compound, the inhibition at 1 µM in assay [1] turned out to be 65.9%.
For `COC(=O)/C(C#N)=C/c1ccc(OCCCCOC(=O)[C@]2(C)CC[C@]3(C)CC[C@]4(C)C5=CC=C6C(=CC(=O)C(O)=C6C)[C@]5(C)CC[C@@]4(C)[C@@H]3C2)c(OC)c1`, the inhibition at 1 µM in assay [1] came to 13.8%.
`CC1=C(O)C(=O)C=C2C1=CC=C1[C@@]2(C)CC[C@@]2(C)[C@@H]3C[C@](C)(C(=O)O)CC[C@]3(C)CC[C@]12C` [CELASTROL]: the IC50 worked out at 1.28 µM in assay [2], 1.06 µM in assay [3] and 1.33 µM in assay [4]. Moreover, the Activity is on record as 16.1% in assay [5], 4.8% in assay [6] and 14.9% in [9]. Also, the viability at 2 µM in assay [7] is 64.1%. For the same compound, the inhibition entry in assay [8] was “Active”. In addition, the inhibition at 1 µM in assay [1] was 60.2%.
In the case of `COC(=O)/C(C#N)=C/c1ccc(OCCCOC(=O)[C@]2(C)CC[C@]3(C)CC[C@]4(C)C5=CC=C6C(=CC(=O)C(O)=C6C)[C@]5(C)CC[C@@]4(C)[C@@H]3C2)cc1C`, in assay [1], the inhibition at 1 µM is 19.8%.
On to `COC(=O)/C=C/c1cc(OC)c(OCCCOC(=O)[C@]2(C)CC[C@]3(C)CC[C@]4(C)C5=CC=C6C(=CC(=O)C(O)=C6C)[C@]5(C)CC[C@@]4(C)[C@@H]3C2)c(OC)c1`, for which the inhibition at 1 µM in [1] was 8.61%.
As for `COC(=O)/C(C#N)=C/c1ccc(OCCCOC(=O)[C@]2(C)CC[C@]3(C)CC[C@]4(C)C5=CC=C6C(=CC(=O)C(O)=C6C)[C@]5(C)CC[C@@]4(C)[C@@H]3C2)cc1OC`, the inhibition at 1 µM in [1] came out at 11%.
For the compound `COC(=O)/C(C#N)=C\c1cccc(OCCCOC(=O)[C@]2(C)CC[C@]3(C)CC[C@]4(C)C5=CC=C6C(=CC(=O)C(O)=C6C)[C@]5(C)CC[C@@]4(C)[C@@H]3C2)c1`, the inhibition at 1 µM in [1] stood at 47%.
For `COC(=O)/C(C#N)=C/c1ccc(OCCCOC(=O)[C@]2(C)CC[C@]3(C)CC[C@]4(C)C5=CC=C6C(=CC(=O)C(O)=C6C)[C@]5(C)CC[C@@]4(C)[C@@H]3C2)c(OC)c1`, the concentration for half-maximal inhibition (IC50) was 0.66 µM in assay [2], 0.65 µM in [3] and 0.75 µM in assay [4]. Further, in [1], the inhibition at 1 µM is 66.5%.
As for `COC(=O)/C=C/c1ccc(OCCCCOC(=O)[C@]2(C)CC[C@]3(C)CC[C@]4(C)C5=CC=C6C(=CC(=O)C(O)=C6C)[C@]5(C)CC[C@@]4(C)[C@@H]3C2)cc1`, the inhibition at 1 µM in assay [1] amounted to 0.94%.
The same measure, in the same setting: in the case of `COC(=O)/C=C\c1ccc(OC)c(OCCCCOC(=O)[C@]2(C)CC[C@]3(C)CC[C@]4(C)C5=CC=C6C(=CC(=O)C(O)=C6C)[C@]5(C)CC[C@@]4(C)[C@@H]3C2)c1` it was 40.1%; in that of `COC(=O)/C(C#N)=C/c1ccc(OC/C=C/COC(=O)[C@]2(C)CC[C@]3(C)CC[C@]4(C)C5=CC=C6C(=CC(=O)C(O)=C6C)[C@]5(C)CC[C@@]4(C)[C@@H]3C2)c(OC)c1`, 25.7%.
With `COC(=O)/C=C/c1ccc(OCCOC(=O)[C@]2(C)CC[C@]3(C)CC[C@]4(C)C5=CC=C6C(=CC(=O)C(O)=C6C)[C@]5(C)CC[C@@]4(C)[C@@H]3C2)cc1`, the figures for the IC50 in [2], in assay [3] and in assay [4] were 0.6 µM, 0.67 µM and 0.6 µM, respectively. The inhibition at 1 µM in assay [1] is 63.9%.
Turning to `COC(=O)/C=C/c1cc(OC)c(OCCOC(=O)[C@]2(C)CC[C@]3(C)CC[C@]4(C)C5=CC=C6C(=CC(=O)C(O)=C6C)[C@]5(C)CC[C@@]4(C)[C@@H]3C2)c(OC)c1`, the IC50 was determined as 1.07 µM in assay [2], 0.88 µM in [3] and 0.89 µM in [4]. In assay [1], the inhibition at 1 µM was 60.3%.
With `COC(=O)/C=C\c1ccc(OC)c(OCCCOC(=O)[C@]2(C)CC[C@]3(C)CC[C@]4(C)C5=CC=C6C(=CC(=O)C(O)=C6C)[C@]5(C)CC[C@@]4(C)[C@@H]3C2)c1`, the results for the half-inhibitory concentration (IC50) in assay [2], in [3] and in assay [4] were 0.7 µM, 0.67 µM and 0.65 µM, respectively. The inhibition at 1 µM in assay [1] turned out to be 67.4%.
For the compound `COC(=O)[C@]12CCC(C)(C)C[C@H]1[C@H]1C(=O)C=C3[C@@]4(C)C=C(C#N)C(=O)C(C)(C)[C@@H]4CC[C@@]3(C)[C@]1(C)CC2` [BARDOXOLONE METHYL], the IC50 came out at 0.36 µM in assay [2], 0.35 µM in assay [3] and 0.26 µM in [4].
